Values of other authors as cited in PubChem BioAssay AID1259409 (Chemical Carcinogenesis Research Information System (CCRIS), 2018).

Tested on: rodent chemically induced tumor inhibition, incidence and multiplicity
Test: CCRIS tumor inhibitor studies
Conditions: Promoter: NONE USED

Structure (SMILES) | tumour outcome (control, treated, inhibition, significance) (Carcinogen: 1,2-DIMETHYLHYDRAZINE, 540-73-8, Dose [Inhibitor]: 0, 0.001% IN DRINKING WATER FOR 30 WK (STUDY DURATION: 30 WK), Route [Inhibitor]: ORAL, Species: MOUSE, Strain/Sex: ICR/FEMALE, Target Tissue: Type of Lesion: COLON: TUMOR, Dose [Carcinogen]: 10 MG/KG BW 1/WK FOR 15 WK) | tumour outcome (control, treated, inhibition, significance) (Carcinogen: 1,2-DIMETHYLHYDRAZINE, 540-73-8, Dose [Inhibitor]: 0, 0.005% IN DRINKING WATER FOR 30 WK (STUDY DURATION: 30 WK), Route [Inhibitor]: ORAL, Species: MOUSE, Strain/Sex: ICR/FEMALE, Target Tissue: Type of Lesion: COLON: TUMOR, Dose [Carcinogen]: 10 MG/KG BW 1/WK FOR 15 WK) | tumour outcome (control, treated, inhibition, significance) (Carcinogen: 1,2-DIMETHYLHYDRAZINE, 540-73-8, Dose [Inhibitor]: 0, 0.01% IN DRINKING WATER FOR 25 WK (STUDY DURATION: 25 WK), Route [Inhibitor]: ORAL, Species: MOUSE, Strain/Sex: ICR/FEMALE, Target Tissue: Type of Lesion: COLON: TUMOR, Dose [Carcinogen]: 10 MG/KG BW 1/WK FOR 15 WK) | tumour outcome (control, treated, inhibition, significance) (Carcinogen: N-METHYL-N-NITROSOUREA, 684-93-5, Dose [Inhibitor]: 0, 1 PPM IN DRINKING WATER FOR 36 WK BEGINNING POST CARCINOGEN TREATMENT (STUDY DURATION: 40 WK), Route [Inhibitor]: ORAL, Species: RAT, Strain/Sex: F344/FEMALE, Target Tissue: Type of Lesion: COLON: ADENOCARCINOMA, Dose [Carcinogen]: 2 MG 3/WK FOR 3 WK) | tumour outcome (control, treated, inhibition, significance) (Carcinogen: N-METHYL-N-NITROSOUREA, 684-93-5, Dose [Inhibitor]: 0, 5 PPM IN DRINKING WATER FOR 36 WK BEGINNING POST CARCINOGEN TREATMENT (STUDY DURATION: 40 WK), Route [Inhibitor]: ORAL, Species: RAT, Strain/Sex: F344/FEMALE, Target Tissue: Type of Lesion: COLON: ADENOCARCINOMA, Dose [Carcinogen]: 2 MG 3/WK FOR 3 WK) | tumour outcome (control, treated, inhibition, significance) (Carcinogen: N-METHYL-N-NITROSOUREA, 684-93-5, Dose [Inhibitor]: 0, 25 PPM IN DRINKING WATER FOR 36 WK BEGINNING POST CARCINOGEN TREATMENT (STUDY DURATION: 40 WK), Route [Inhibitor]: ORAL, Species: RAT, Strain/Sex: F344/FEMALE, Target Tissue: Type of Lesion: COLON: ADENOCARCINOMA, Dose [Carcinogen]: 2 MG 3/WK FOR 3 WK) | tumour outcome (control, treated, inhibition, significance) (Carcinogen: N-METHYL-N-NITROSOUREA, 684-93-5, Dose [Inhibitor]: 0, 200 PPM IN DRINKING WATER FOR 40 WK BEGINNING CONCURRENTLY WITH CARCINOGEN TREATMENT (STUDY DURATION: 40 WK), Route [Inhibitor]: ORAL, Species: RAT, Strain/Sex: F344/FEMALE, Target Tissue: Type of Lesion: COLON: ADENOCARCINOMA, Dose [Carcinogen]: 2 MG 3/WK FOR 2 WK) | tumour outcome (control, treated, inhibition, significance) (Carcinogen: BENZO[A]PYRENE, 50-32-8, Dose [Inhibitor]: 25 MG IN 0.1 ML ACETONE 3/WK ADMINISTERED SIMULTANEOUSLY WITH CARCINOGEN FOR DURATION OF STUDY (STUDY DURATION: 440 D), Route [Inhibitor]: DERMAL, Species: MOUSE, Strain/Sex: ICR/FEMALE, Target Tissue: Type of Lesion: SKIN: PAPILLOMA, Dose [Carcinogen]: 5 UG IN 0.1 ML ACETONE 3/WK FOR DURATION OF STUDY) | tumour outcome (control, treated, inhibition, significance) (Carcinogen: BENZO[A]PYRENE, 50-32-8, Dose [Inhibitor]: 25 MG IN 0.1 ML ACETONE 3/WK ADMINISTERED SIMULTANEOUSLY WITH CARCINOGEN FOR DURATION OF STUDY (STUDY DURATION: 440 D), Route [Inhibitor]: DERMAL, Species: MOUSE, Strain/Sex: ICR/FEMALE, Target Tissue: Type of Lesion: SKIN: SQUAMOUS CARCINOMA, Dose [Carcinogen]: 5 UG IN 0.1 ML ACETONE 3/WK FOR DURATION OF STUDY)
CC[C@H](C)C(=O)O[C@H]1C[C@H](O)C=C2C=C[C@H](C)[C@H](CC[C@@H](O)C[C@@H](O)CC(=O)O)[C@H]21 | 21/34 (62%), 14/30 (47%), 24%, not significant | 21/34 (62%), 13/30 (43%), 31%, not significant | 6/15 (40%), 2/15 (13%), 68%, not significant | 24/30 (80%), 23/30 (77%), 4%, not significant | 24/30 (80%), 14/29 (48%), 40%, p<0.05 | 24/30 (80%), 15/30 (50%), 38%, p<0.05 | 11/16 (69%), 10/16 (63%), 9%, not significant | – | –
CCCCCCCCCCCCCCCC | – | – | – | – | – | – | – | 16/50 (32%), 5/50 (10%), 69%, not calculated | 12/50 (24%), 2/50 (4%), 83%, not calculated
